Earlier results on one compound are cited in patent US7314641B1, “High-bioavailability particle coated with fungicide and polymer” (Everest Pharm. Industrial Co., Ltd., priority 2007, dated 2008).

The structures appear in SMILES notation.

For data set [1] the following is noted: prior art statement on the compound of U.S. Pat. No. 4,267,179.

As to `CCC(C)n1ncn(-c2ccc(N3CCN(c4ccc(OCC5COC(Cn6cncn6)(c6ccc(Cl)cc6Cl)O5)cc4)CC3)cc2)c1=O` (single isomer, unassigned; (+)) [itraconazole, (+)-cis-4-[4-[4-[-4[[2-(2,4-dichlorophenyl)-2-(1H-1,2,4-triazol-1-ylmethyl)-1,3-dioxolan-4-yl]methoxy]phenyl]-1-piperazinyl]phenyl-2,4-dihydro-2-1(1-methylpropyl)-3H-1,2,4-triazol-3-one], the “Metabolic period in human beings” value is 96 h. Further, the water solubility result in data set [1] is given as “not water soluble”.
